# “Also recorded” adds a separate entry of the source.
# Experiments:
# [1] = tested on: IκBζ; test: Ikb-ζ protein in LPS-stimulated human monocytes (western blot); assay type: cell-based; details: human monocytes, DI 12 h, LPS 100 ng/ml
# Protocol: (§1) Cells were lysed in RIPA Lysis Buffer System (Santa Cruz) and heat-denatured at 95° C. for 5 min in reducing sample buffer (BioRad). Proteins were separated on 4%-20% polyacrylamide gradient gels (BioRad) and transferred onto 0.45 μm pore size PVDF membranes (Millipore). Non-specific binding was blocked with 5% skim milk (or 5% BSA when phospho-proteins were analyzed), and membranes were probed with primary antibodies specific to Nrf2 (#12721), HO-1 (#70081), IκBζ (mouse specific, #93726), IκBζ(#9244), ATF3 (#D2Y5W), IRAK1 (#4504; sensitivity of IRAK1 detection diminishes upon IRAK1 K63 ubiquitination), phospho-IKK (Ser176/180, #2697), p62/SQSTM1 (#5114), phospho-eIF2α (Ser51, #9721), eIF2α (#5324) from Cell Signaling; GAPDH (sc-25778), IκBα (sc-1643), ATF3 (sc-188), SDHA (sc-166909) from Santa Cruz; NQO1 (ab28947) from Abeam, followed by incubation with anti-rabbit-HRP (1:10,000; sc-2030) or anti-mouse-HRP (1:10,000; sc-2031) from Santa Cruz and Clarity western ECL substrate (Bio-Rad). […]
# Blood from healthy donors was acquired from LRS chambers supplied by the Mississippi Valley Regional Blood Center. […] After extensive washes to allow removal of non-adherent cells, monocytes (>95% purity) were harvested, counted and 5×10^5 cells were plated per well in 24-well plates. […]
# [2] = tested on: IκBζ; test: IL-17A-induced IκBζ in primary mouse keratinocytes (western blot); assay type: cell-based; details: DI 12 h, IL-17A 100 ng/ml
# Protocol: as §1, with “(Bio-Rad). Membranes were exposed to X-Ray films (Research Products International Corp.) and developed using SRX-101A film processor (Konica Minolta). GAPDH run on the same blot was used as loading control. After scanning of original films image brightness of some blots was adjusted and bands were cropped using ImageJ. Densitometry was performed using ImageJ.” for “(Bio-Rad).”
# [3] = tested on: human primary keratinocytes; test: Viability of primary keratinocytes (propidium iodide, flow cytometry); assay type: cell-based; details: DI 12 h
# Protocol: For ROS measurements, cells were treated with DI (250 μM), loaded with 10 μM CM-H2DCFDA (Invitrogen) at RT for 30 min in Hank's balanced salt solution (HBSS). After incubation, cell were rinsed with warm HBSS, harvested and directly analyzed. Mean fluorescent intensity (MFI) of living cells is shown. For Nfkbiz 3′UTR reporter analysis GFP signal was determined in live cells. For analysis of cell viability cells were stained with propidium iodide (1 μg/mL) and percentage of negative cells was plotted. Cells were acquired on CantoII or LSRII flow cytometers (Becton Dickinson), and data were analyzed with FlowJo v.9.5.2 software (Tree Star). For gating strategy see e.g., FIG. 25.
# Primary keratinocytes were isolated from C57BL/6 WT newborn mice or human foreskins as previously described. 2×10^5 cells in 1 ml of KFSM media (Gibco cat #10725-018) [Ca2+ at 0.05 mM (mouse) and 0.09 mM (human)] were plated in 12-well tissue culture plates. After 2-3 days of cultivation, mouse or human cells were treated with DI for 12 hours and then stimulated with mouse recombinant IL-17A (100 ng/mL; cat #421-ML, R&D Systems) or human recombinant IL-17A (100 ng/mL; cat #7955-IL, R&D Systems) for 4 h or as indicated.
# [4] = tested on: imiquimod-induced psoriasis-like skin inflammation; test: IMQ-induced psoriasis mouse model; assay type: in vivo; details: DI daily i.p.
# Protocol: RNA from cultured cells was isolated using a Total RNA I kit (OMEGA). RNA from mouse ear skin was extracted using RNAeasy mini kit (Qiagen) after tissue disruption with sterile zirconium beads on a MagNA Lyser (Roche). Isolated RNA was reverse transcribed using AffinityScript Multi-Temp reverse transcriptase (Agilent Technologies) according to the manufacturer's protocol. Reactions were performed in 96-well plates using a SYBR Green PCR Master mix (Thermo Fisher Scientific) using a LightCycler® 96 or LightCycler® 480 (Roche Diagnostics). All assays were performed at least in duplicates, and reaction mixtures in 20 μL volumes (96-plate) or 10 μL volumes (384-plate) were processed under the following cycling conditions: initial 10 min denaturation at 95° C., followed by 40 cycles at 95° C. for 10 s, 60° C. for 1 min. Threshold cycle (CT) values for each sample were determined by automated threshold analysis. Expression levels of all mRNAs were normalized to reference gene Actb in BMDMs or to Rpl19 in mouse keratinocytes and tissue samples; to ACTB in human blood monocytes or RPLP0 in human keratinocytes. […] Average ear thickness in each sample was quantified from images obtained at the identical settings using ImageJ. Thickness at 5 equidistant places in each image was quantified and mean of these values was used to represent results in each mouse.
smiles,measurement,setting,value
"C=C(CC(=O)OC)C(=O)OC [DI, dimethyl itaconate]",LPS-induced Ikb-ζ protein levels,[1],decreased Ikb-ζ protein levels; also recorded: completely abolished
same,IL-17-induced IκBζ induction,[2],inhibited
same,viability of primary keratinocytes,[3],not affected
same,"IκBζ target gene expression (Defb4, S100a9, S100a7a, Lcn2) in ear skin","[4]; IMQ 7 days, qPCR",markedly reduced
same,psoriatic skin pathology,[4]; IMQ topically on ears 7 days,significant improvement of the psoriatic pathology; also recorded: no detectable skin changes

# — patent publication US20200375929A1, “METHODS AND COMPOSITIONS FOR THE TREATMENT OF DISEASES ASSOCIATED WITH CANCER, INFLAMMATION, OR IMMUNE RESPONSE” (Washington University, priority 2017, published 2020)
